Laboratory results as given in a melting point compilation (Tetko et al.).

Structure (SMILES) | melting point
Fc1ccc(Br)nc1 | 28.5 °C
COC(=O)CC1C(=O)NC(C)=C1C(=O)OC (centres undefined) | 93 to 94 °C
O=C(O)c1cc(Cl)ccc1F | 149 °C
FC(F)(F)c1cnc(N2CCNCC2)c(Cl)c1 | 65 to 67 °C
CCOC(=O)CNc1nc(N)n[nH]1 | 177 to 179 °C
O=C(O)C1C2CCC(O2)C1C(=O)O (centres undefined) | 144 °C
CCCC#CCCCC(=O)O | -3 °C
N#CCc1c(C#N)c(N)nc(Cl)c1C#N | 257 to 259 °C
FC(F)(F)c1cccnc1S | 180 to 182 °C
CC(C)(C)S(=O)(=O)c1cnc(N2CCOCC2)nc1N | 196 to 198 °C
COC1=C(C(C)C)C(=O)C2=C(C1=O)C1(C)CCCC(C)(C)C1CC2O (centres undefined) | 138 °C
Nc1cccnc1Cl | 78 °C
O=[N+]([O-])c1cc(Cl)c(O)c(Cl)c1 | 127 °C
O=C1CCSCC1 | 62 to 65 °C
O=Cc1cccc(N2CCOCC2)n1 | 93 to 95 °C
NNC(=S)NCc1cccnc1 | 171 to 173 °C
CC12CCC(O)CC1CCC1C2CCC2(C)C(C3=CC(=O)OC3)C(O)CC12O (centres undefined) | 234 °C
O=C(O)c1cccc2c1OCO2 | 224 to 225 °C
CC12CCC(C(=O)C(Br)(Br)C1=O)C2(C)C (centres undefined) | 155 °C
CC(=O)OC1(C(C)=O)CCC2C3CCC4=CC(=O)CCC4(C)C3(F)C(O)CC21C (centres undefined) | 268 °C
CCCC(C)O (centres undefined) | -73 °C
COc1c(Br)cc(C)c2c1CCC2 | 30 °C

Structure (SMILES) | melting point
CC1(O)CCC2C3CCC4=CC(=O)CCC4(C)C3(F)C(O)CC21C (centres undefined) | 270 °C
CCCC(C)(COC(N)=O)COC(N)=O | 104 °C
O=C(O)C(O)C(O)C(=O)Nc1ccc(Cl)cc1 (single isomer, unassigned; (+)) | 193 to 195 °C
CC(C)S(=O)(=O)CC#N | 32 to 34 °C
COC(=O)CCC(C)C1CCC2C3CCC4CC(=O)CCC4(C)C3CCC12C (centres undefined) | 116 to 118 °C
O=Cc1c(F)cccc1Cl | 37 °C
CC1(C)CC2C(C(=O)O1)C2(C)C (centres undefined) | 80 to 83 °C
Cc1c(C(C)OC(=O)CCC(=O)O)oc2ccc(C3=CC(=O)OC3)cc12 (centres undefined) | 144 °C
Fc1ccc(C(c2ccc(F)cc2)C(Cl)(Cl)Cl)cc1 | 44.5 °C
O=c1[nH]c2ccccc2n1C1CCNCC1 | 183 to 185 °C
NCCc1ccc(-c2ccccc2)cc1 | 53 to 55 °C
O=C(Nc1nnc(-c2ccc(Cl)cc2)o1)c1ccc(Cl)cc1 | 278 to 279 °C
CC(C)Cc1ccc(C(=O)C(C)Cl)cc1 (centres undefined) | 52 to 54 °C
O=C(O)Cc1c(Cl)cccc1C(F)(F)F | 151 °C
CC1(C)N[C@H](C(=O)O)Cc2c1[nH]c1ccccc21 | 227 to 228 °C
O=C(O)c1c(Cl)ccc(Cl)c1Cl | 125 °C
O=C(O)/C=C/c1c[nH]c2ccccc12 | 184 to 187 °C
C=Cc1c(Cl)cccc1Cl | 89 °C
ClCc1cc2cc(Br)ccc2o1 | 63 to 64 °C
CC(C)(C)OC(=O)N1CCN(c2ccc(C=O)cc2)CC1 | 118 to 119 °C
FC(F)(F)C(F)(F)C(F)(F)C(F)(F)C(F)(F)F | -100 °C
COCCNc1c(C=O)c(=O)n(C)c(=O)n1C | 137 °C

Structure (SMILES) | melting point
CCCCCc1ccc(O)cc1O | 72.5 °C
BrCC(Br)C1CCC(Br)C(Br)C1 (centres undefined) | 70 °C
C#CCCCCCCCCCCCCCC | 15 °C
COP(=S)(OC)SCc1nc(N)nc(N)n1 | 165 °C
Cc1ccncc1S(=O)(=O)O | 300 °C
Nc1ccnc(N)n1 | 143 to 148 °C
CC1(C)C(C=C2CCSC2=O)C1C(=O)OCc1coc(Cc2ccccc2)c1 (centres undefined) | 31 °C
CC(=O)OC1C(=O)C2=C(C(=O)C13CC3C)C(O)C(O)C1C(C)(C)CCCC21C (centres undefined) | 180 to 182 °C
O=C(O)C1CCCNC1 (centres undefined) | 246 to 253 °C
CCCCN(C)C(=O)Nc1ccc(Cl)c(Cl)c1 | 102 °C
CC(C)C(=O)NN | 97 to 100 °C
CC(C)C[C@H](N)[C@@H](O)CC(=O)O | 209 °C
O=C(O)C(F)(F)C(F)(F)C(F)(F)C(F)(F)C(F)(F)C(F)(F)C(F)(F)C(F)(F)C(F)(F)C(F)(F)F | 97.9 to 100 °C
CC(C)(C)S(=O)(=O)c1cnc(N2CCCC2)nc1N | 199 to 201 °C
Cc1ccc(-c2csc(/C(C#N)=N\Nc3cccc([N+](=O)[O-])c3)n2)cc1 | 225 °C
CCOC(=O)Nc1c([N+](=O)[O-])cc(Cl)cc1[N+](=O)[O-] | 167 °C
OCCC1CCCCN1 (centres undefined) | 69 °C
N#C/C(=N\Nc1c(Br)cc(Br)cc1Br)c1nc2ccccc2s1 | 179 °C
NNC(=O)c1cccc(F)c1 | 138 to 139 °C
CC(=O)Oc1ccc(I)cc1 | 32 °C
NC(=NO)c1ccc(OC(F)(F)F)cc1 | 113 to 115 °C
Fc1nc(F)nc(F)n1 | -38 °C

Structure (SMILES) | melting point
CSC(=NS(=O)(=O)c1ccc(C)cc1)SC | 109 to 110 °C
O=CC(C=O)c1ccc(C(=O)O)cc1[N+](=O)[O-] | 199 to 205 °C
CC12CCC(/C(=C3/OC(C4C(=O)C5(C)CCC4C5(C)C)C3=O)C1=O)C2(C)C (centres undefined) | 196 °C
NC(=O)c1c(F)ccc(F)c1F | 117 °C
c1ccc2nsnc2c1 | 43 °C
CC(=O)c1nn2c(C(F)(F)F)nnc2s1 | 200 °C
Nc1cc(Cl)nc(Cl)c1 | 174 °C
O=C(c1ccc(O)cc1)c1ccc(Cl)cc1 | 180 °C
N#CC=P(c1ccccc1)(c1ccccc1)c1ccccc1 | 189 to 198 °C
Cc1cc(O)c(C(c2ccc([N+](=O)[O-])cc2)c2c(O)cc(C)oc2=O)c(=O)o1 | 238 to 240 °C
CCCOCC(C)OCC(C)O (centres undefined) | 7.08 °C
Cc1nc(N)nc(O)c1Br | 244 to 246 °C
CN=C=O | -45 °C
O=C(O)CSCC(=O)O | 129 °C
O=Cc1cc(Br)ccc1Br | 95 °C
O=C(/C=C/c1ccco1)c1ccc(O)cc1 | 163 °C
O=C(O)c1onc2ccccc12 | 185 °C
CCC1NC(=O)c2cc(S(N)(=O)=O)c(Cl)cc2N1 (centres undefined) | 251 °C
C#CC1(O)CCC2C3CCc4cc(OC)ccc4C3CCC21C (centres undefined) | 150 °C
Oc1ccc(F)c2cccnc12 | 110 °C

Now from value to compound:

melting point | Structure (SMILES)
49 to 51 °C | COc1ccc(OC)c(C(C)=O)c1O
114 °C | O=[N+]([O-])c1ccc(-c2ccccc2)cc1
222 °C | CC(C)(C)c1nnc(NS(=O)(=O)c2ccc(N)cc2)s1
217 °C | O=C(Nc1ccccc1)c1cccc2c(Br)cccc12
123 °C | COc1ccccc1-c1nnc2n1NCS2
78 to 80 °C | COc1ccc(CCNc2ccccc2N)cc1OC
115 to 116 °C | O/N=C(/C=Cc1ccccc1)c1ccccc1
193 °C | Nc1ccccc1/C=C/c1cc(/C=C/c2ccccc2)c([N+](=O)[O-])cc1[N+](=O)[O-]
93 to 96 °C | O=[N+]([O-])c1ccc(Oc2ccc(Cl)cc2)nc1
90 °C | O=C(O)CCc1ccc(F)cc1
119 °C | Cc1n[nH]c(C)c1Cc1ccccc1
119 °C | O=C(COC(=O)c1ccccc1)c1ccccc1
83 °C | COc1cc(Cl)c(Cl)cc1OC
121 to 123 °C | Cc1ccc(COc2ccc(CC#N)cc2)cc1
139 °C | O=C(O)c1ccccc1N/N=C1/C(=O)N(c2ccccc2)N=C1C(F)(F)F
205 °C | c1ccc(-c2nnc3n2CN(c2ccccc2)CS3)cc1
77 °C | CC(O)CCc1ccc2c(c1)N(C(=O)c1ccccc1)C(C)CC2 (centres undefined)
217 °C | O=C(O)C1c2ccccc2Oc2ccccc21
199 °C | Cc1ccccc1N1CSc2nnc(-c3ccccc3)n2C1
266 to 267 °C | O=C1C(=C2C=Cc3ccc(O)cc3N2)C(=O)c2ccccc21
34 °C | CCCCCc1ccc(-c2ccc(C#N)cc2)cc1
69 °C | CC(C)(C)c1ccc(OCC#N)cc1

melting point | Structure (SMILES)
175 °C | COc1ccc(C(N)=O)cc1[N+](=O)[O-]
59.5 °C | Cc1cc(Br)ccc1N
160 °C | Cc1ccc(C(=O)/C=C/c2ccc(-c3cccc([N+](=O)[O-])c3)o2)o1
98 °C | COC(=O)c1ccc(OCc2ccccc2)cc1
185 to 187 °C | CC(C)(C)OC(=O)NC1(C(=O)O)CCc2ccccc2C1 (centres undefined)
122 °C | CCP(=O)(c1ccccc1)c1ccccc1
193 °C | Cc1nc(NS(=O)(=O)c2ccc(N)cc2)oc1C
182 °C | CC1(C)OC(=O)C(=Cc2ccc(-c3ccc(Br)cc3)o2)C(=O)O1
135 to 137 °C | CC(=O)c1sc(-c2ccccc2)cc1N
147 °C | Cc1ccc(S(=O)(=O)N/N=C2\C=CC(C)(c3ccccc3)CC2)cc1 (centres undefined)
235 °C | COc1ccc(-n2nc(C(=O)c3cccs3)s/c2=N/C(=O)c2ccccc2)cc1
176 °C | Cc1ccc(C(=O)c2csc(S(N)(=O)=O)c2)cc1
58 °C | CCOC(=O)C(Cc1ccccc1)(Cc1ccccc1)C(C)=O
115 °C | CN(C)CCCN1c2ccccc2S(=O)c2ccc(Cl)cc21 (centres undefined)
146 °C | CCN(CC)CCNC(=O)c1cc(Cl)c(N)cc1OC
199 °C | O=C(O)c1ccccc1/N=N/C1SC(=S)N(c2ccccc2)C1=O (centres undefined)
209 °C | COc1cc(Cc2nccc3cc(OC)c(O)cc23)ccc1O
172 °C | CC(=O)N[C@@H](Cc1ccccc1)C(=O)O
121 °C | O=C(CCC(=O)Oc1ccccc1)Oc1ccccc1
192 °C | CC1(C)OC(=O)C(=NNc2cccc([N+](=O)[O-])c2)C(=O)O1
108 to 111 °C | CC1(C)N=C(c2ccccc2)C=[N+]1[O-]
